20 compounds from PMC3382598, “Functional Metagenomics Unveils a Multifunctional Glycosyl Hydrolase from the Family 43 Catalysing the Breakdown of Plant Polymers in the Calf Rumen” (PLoS ONE, 2012) can be followed below.

The first assay concerns T1, R_09-02.
T1 construct: recombinant in E. coli, His6-tag purification; tetramer approx. 200 kDa; second CDS of 3264 bp r_09 insert; W82, H301, R327 conserved residues; N-terminal GH43 domain plus C-terminal beta-sandwich (CBM6-like)
The experiment in a line: p-nitrophenol release at […] nm; Michaelis-Menten fit. In kind it is biochemical. Particulars: pH 6.0 (20 mM sodium acetate), 34°C; read-out: K m (mM)^1.
In the case of `O=[N+]([O-])c1ccc(O[C@H]2O[C@H](CO)[C@@H](O[C@H]3O[C@H](CO)[C@@H](O)[C@H](O)[C@H]3O)[C@H](O)[C@H]2O)cc1` [pNPαMal], the Km came to 9.74 ± 0.41 mM.

In the case of `O=[N+]([O-])c1ccc(O[C@@H]2OC[C@H](O)[C@H](O)[C@H]2O)cc1` [pNPαAp], the Km turned out to be 6.98 ± 0.79 mM.

As for `O=[N+]([O-])c1ccc(O[C@H]2O[C@H](CO)[C@@H](O)[C@H](O)[C@H]2O)cc1` [pNPαG], the Km came out at 4.84 ± 1.27 mM.

`O=[N+]([O-])c1ccc(O[C@@H]2OC[C@@H](O)[C@H](O)[C@H]2O)cc1` [pNPβX]: the Km was found to be 4.4 ± 0.76 mM.

For `O=[N+]([O-])c1ccc(O[C@@H]2O[C@@H](CO)[C@H](O)[C@H]2O)cc1` [pNPαAf], the Km worked out at 0.57 ± 0.15 mM.

On to `O=[N+]([O-])c1ccc(O[C@@H]2O[C@H](CO)[C@H](O)[C@H](O)[C@H]2O)cc1` [pNPβGal], for which the Km was 0.37 ± 0.12 mM.

For another assay, the system named is T1, R_09-02. The experiment in a line: released xylose, D-xylose assay kit; Michaelis-Menten fit. In kind it is biochemical. The settings on record: pH 6.0 (20 mM sodium acetate), 34°C; read-out: K m (mM)^1. An excerpt: released xylose, D-xylose assay kit; Michaelis-Menten fit on R_09-02
With `OC1OC[C@@H](O[C@@H]2OC[C@@H](O[C@@H]3OC[C@@H](O)[C@H](O)[C@H]3O)[C@H](O)[C@H]2O)[C@H](O)[C@H]1O` (stereo partly drawn) [1,4-β-Xylotriose], the Km amounted to 0.29 ± 0.02 mM.

Consider `OC1[C@H](O)CO[C@@H](O[C@@H]2CO[C@@H](O[C@@H]3CO[C@@H](O[C@@H]4CO[C@@H](O[C@@H]5COC(O)[C@H](O)[C@H]5O)[C@H](O)C4O)[C@H](O)C3O)[C@H](O)C2O)[C@@H]1O` (stereo partly drawn) [1,4-β-Xylopentaose], for which the Km stood at 1.58 ± 0.19 mM.

For `OC1OC[C@@H](O[C@@H]2OC[C@@H](O)[C@H](O)[C@H]2O)[C@H](O)[C@H]1O` (stereo partly drawn) [1,4-β-Xylobiose], the Km amounted to 0.012 ± 0.002 mM.

Turning to `OC1OC[C@@H](O[C@@H]2OC[C@@H](O[C@@H]3OC[C@@H](O[C@@H]4OC[C@@H](O)[C@H](O)[C@H]4O)[C@H](O)[C@H]3O)[C@H](O)[C@H]2O)[C@H](O)[C@H]1O` (stereo partly drawn) [1,4-β-Xylotetraose], the Km was found to be 0.33 ± 0.07 mM.

A further assay deals with T1, R_09-02. The experiment in a line: released glucose, glucose oxidase kit; Michaelis-Menten fit. Particulars: pH 6.0 (20 mM sodium acetate), 34°C; read-out: K m (mM)^1. In kind it is biochemical. An excerpt: released glucose, glucose oxidase kit; Michaelis-Menten fit on R_09-02
Take `OC[C@H]1O[C@@H](O[C@H]2[C@H](O)[C@@H](O)C(O)O[C@@H]2CO)[C@H](O)[C@@H](O)[C@H]1O` (some centres unmarked) [Lactose]: the Km came out at 0.05 ± 0.0039 mM.

Turning to `OC[C@H]1O[C@H](O[C@H]2[C@H](O)[C@@H](O)[C@@H](O[C@H]3[C@H](O)[C@@H](O)C(O)O[C@@H]3CO)O[C@@H]2CO)[C@H](O)[C@@H](O)[C@@H]1O` (some centres unmarked) [Maltotriose], the Km turned out to be 0.44 ± 0.13 mM.

On to `OC[C@H]1O[C@H](O[C@H]2[C@H](O)[C@@H](O)[C@@H](O[C@H]3[C@H](O)[C@@H](O)[C@@H](O[C@H]4[C@H](O)[C@@H](O)C(O)O[C@@H]4CO)O[C@@H]3CO)O[C@@H]2CO)[C@H](O)[C@@H](O)[C@@H]1O` (some centres unmarked) [Maltotetraose], for which the Km was determined as 0.53 ± 0.17 mM.

Take `OC[C@H]1O[C@H](O[C@H]2[C@H](O)[C@@H](O)C(O)O[C@@H]2CO)[C@H](O)[C@@H](O)[C@@H]1O` (some centres unmarked) [Maltose]: the Km is 2.57 ± 0.19 mM.

As to `OC[C@H]1O[C@H](O[C@H]2[C@H](O)[C@@H](O)[C@@H](O[C@H]3[C@H](O)[C@@H](O)[C@@H](O[C@H]4[C@H](O)[C@@H](O)[C@@H](O[C@H]5[C@H](O)[C@@H](O)C(O)O[C@@H]5CO)O[C@@H]4CO)O[C@@H]3CO)O[C@@H]2CO)[C@H](O)[C@@H](O)[C@@H]1O` (some centres unmarked) [Maltopentaose], the Km is 1.64 ± 0.21 mM.

For the next assay, the system named is T1, R_09-02. The assay can be described thus: oligosaccharide hydrolysis, released sugar assay; Michaelis-Menten fit. In kind it is biochemical. Particulars: pH 6.0 (20 mM sodium acetate), 34°C; read-out: K m (mM)^1. An excerpt: oligosaccharide hydrolysis, released sugar assay; Michaelis-Menten fit on R_09-02
For `OC[C@H]1O[C@H](OC[C@H]2O[C@H](OC[C@H]3O[C@H](O[C@]4(CO)O[C@H](CO)[C@@H](O)[C@@H]4O)[C@H](O)[C@@H](O)[C@@H]3O)[C@H](O)[C@@H](O)[C@H]2O)[C@H](O)[C@@H](O)[C@H]1O` [Stachyose], the Km worked out at 1.43 ± 0.84 mM.

As to `OC[C@H]1O[C@H](OC[C@H]2O[C@H](O[C@]3(CO)O[C@H](CO)[C@@H](O)[C@@H]3O)[C@H](O)[C@@H](O)[C@@H]2O)[C@H](O)[C@@H](O)[C@H]1O` [Raffinose], the Km was 0.035 ± 0.004 mM.

The subject of another assay is T1, R_09-02. The assay can be described thus: released arabinose, lactose/galactose (Rapid) assay kit; Michaelis-Menten fit. In kind it is biochemical. Particulars: pH 6.0 (20 mM sodium acetate), 34°C; read-out: K m (mM)^1. An excerpt:
released arabinose, lactose/galactose (Rapid) assay kit; Michaelis-Menten fit on R_09-02
On to `OC[C@@H]1O[C@@H](OC[C@@H]2O[C@@H](OC[C@@H]3OC(O)[C@H](O)[C@H]3O)[C@H](O)[C@H]2O)[C@H](O)[C@H]1O` (stereo partly drawn) [1,5-α-L-Arabinotriose], for which the Km came out at 0.1 ± 0.05 mM.

With `OC[C@@H]1O[C@@H](OC[C@@H]2O[C@@H](OC[C@@H]3O[C@@H](OC[C@@H]4OC(O)[C@H](O)[C@H]4O)[C@H](O)[C@H]3O)[C@H](O)[C@H]2O)[C@H](O)[C@H]1O` (stereo partly drawn) [1,5-α-L-Arabinotetraose], the Km amounted to 4.23 ± 0.74 mM.

For `OC[C@@H]1O[C@@H](OC[C@@H]2OC(O)[C@H](O)[C@H]2O)[C@H](O)[C@H]1O` (stereo partly drawn) [1,5-α-L-Arabinobiose], the Km was determined as 0.027 ± 0.01 mM.
